Experiments:
[1] = system: estrogen receptor preparations of rat prostates (rat prostate cytosol; ERβ predominates); assay: Estrogen receptor binding, rat prostate cytosol (competition with 3H-estradiol); settings: relative binding affinity, RBA of reference substance estradiol = 100
Description: (§1) This patent application describes novel structures for selective estrogens, which have in vitro dissociation with respect to binding to estrogen receptor preparations of the rat uterus and rat prostate. In this case, it is assumed that ERα predominates in the rat uteri over ERβ, while ERβ predominates in the rat prostates over ERα.
(§2) The binding affinity of the new selective estrogens was tested in competitive tests with use of 3H-estradiol as a ligand in estrogen receptor preparations of rat prostates and rat uteri. The preparation of the prostate cytosol and the estrogen receptor test was performed with the prostate cytosol, as described by Testas et al. (1981) (Testsas, J. et al., 1981, Endocrinology 109:1287-1289).

[2] = biological target: T1, estrogen receptor preparations of rat uteri (rat uterus cytosol; ERα predominates) (Rattus norvegicus, UniProt P06211); assay: Estrogen receptor binding, rat uterus cytosol (competition with 3H-estradiol); settings: relative binding affinity, RBA of reference substance estradiol = 100
T1 construct: The preparation of rat uterus cytosol, and the receptor test with the ER containing cytosol; from tissue; host or cells: rat uterus cytosol
T1 sequence (P06211 1-600): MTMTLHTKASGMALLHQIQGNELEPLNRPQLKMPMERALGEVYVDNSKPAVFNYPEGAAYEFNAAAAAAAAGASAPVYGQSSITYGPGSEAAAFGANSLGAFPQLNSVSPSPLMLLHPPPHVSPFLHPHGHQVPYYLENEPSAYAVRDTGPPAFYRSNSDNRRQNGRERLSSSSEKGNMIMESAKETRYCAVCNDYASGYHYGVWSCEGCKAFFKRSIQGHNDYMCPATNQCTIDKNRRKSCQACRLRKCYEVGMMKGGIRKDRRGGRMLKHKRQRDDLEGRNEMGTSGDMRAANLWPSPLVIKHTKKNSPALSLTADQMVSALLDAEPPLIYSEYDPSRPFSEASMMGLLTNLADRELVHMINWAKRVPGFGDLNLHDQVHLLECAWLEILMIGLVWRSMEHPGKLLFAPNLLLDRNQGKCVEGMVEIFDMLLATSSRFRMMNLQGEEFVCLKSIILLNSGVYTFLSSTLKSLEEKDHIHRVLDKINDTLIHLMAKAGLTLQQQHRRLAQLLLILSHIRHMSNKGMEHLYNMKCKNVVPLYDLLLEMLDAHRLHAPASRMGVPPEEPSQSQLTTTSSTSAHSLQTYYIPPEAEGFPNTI
Description: as §1, §2
The preparation of rat uterus cytosol, and the receptor test with the ER containing cytosol were performed basically as by Stack and Gorski, 1985 (Stack, Gorski 1985, Endocrinology 117, 2024-2032) with some modifications as described in Fuhrmann et al. (1995) (Fuhrmann U. et al. 1995, Contraception 51:45-52).

ovariectomized rats = assay: Uterus growth test on ovariectomized rats (3-day treatment); format: in vivo, rat; parameters: unit not given beside the values; settings: subcutaneously daily over 3 days
Description: An in-depth description of the experiment was published (K. H., Fritzemeir, Ch. Hegele-Hartung (1999), Handbook of Pharmacol., Oettel, Schillinger eds., 135/II, 21:1-94). Ovariectomized rats were treated 10 days after ovariectomy with various dosages of the test substance or reference substance. The treatment was carried out subcutaneously daily over 3 days. On day 4, the animals were sacrificed, and the uterus moist and dry weights were determined.

## C[C@]12CC[C@@H]3c4ccc(O)cc4CC[C@H]3[C@@H]1C[C@H]1OC(=O)C[C@]12O [3,17β-Dihydroxy-19-nor-17α-pregna-1,3,5(10)-triene-21,16α-lactone]
[1]
  Rat Prostate Cytosol (RBA*): <0.1
[2]
  Rat Uterus Cytosol (RBA*): 12.5
Ovariectomized rats; dosage 0.1 μg/kg
  Uterus Moist Weight [Mw ± SD]: 23.7 ± 2.2
Ovariectomized rats; dosage 1 μg/kg
  Uterus Moist Weight [Mw ± SD]: 60.1 ± 7.4
Ovariectomized rats; dosage 10 μg/kg
  Uterus Moist Weight [Mw ± SD]: 95.9 ± 12.4

## C[C@]12CC[C@@H]3c4ccc(O)cc4CC[C@H]3[C@@H]1CC[C@@H]2O [17β-Estradiol, reference compound]
Ovariectomized rats; dosage 0.1 μg/kg
  Uterus Moist Weight [Mw ± SD]: 28.0 ± 2.0
Ovariectomized rats; dosage 1 μg/kg
  Uterus Moist Weight [Mw ± SD]: 71.9 ± 9.6
Ovariectomized rats; dosage 10 μg/kg
  Uterus Moist Weight [Mw ± SD]: 82.3 ± 11.3

Source: patent US6670347B2, “19-nor-17α-pregna-1,3,5(10)-trien-17β-ols with a 21,16α-lactone ring” (Schering AG, priority 2000, dated 2003)
